Organism: Rattus norvegicus
Assay: Open TG-GATES - Regimen: Single
Type: toxicity, organism-based, Sprague-Dawley
Parameters: regimen Single, gender Male, age 6 weeks
Conditions: in vivo, po, 0 mg/kg, route gavage, dose level Control; for APTT / Bas / Eos / Fbg / Hb / Ht / Lym / MCH / MCHC / MCV / Mono / Neu / PT / Plat / RBC / Ret / WBC: tissue Blood; for A/G / ALP / ALT / AST / BUN / CRE / Ca / Cl / DBIL / GLC / IP / K / LDH / Na / PL / RALB / TBIL / TC / TG / TP / gamma-GTP: tissue Plasma

How did the TERMINAL_BW (3 h) turn out when `Cn1cc[nH]c1=S` [METHIMAZOLE] was run?
The TERMINAL_BW was 207.3 g.

And the APTT (3 h)?
Its APTT is 20.3 s.

And the Bas (3 h)?
Its Bas is 0%.

What about the Eos (3 h) of the same compound?
The Eos was 0.4%.

And the Fbg (3 h)?
The Fbg was 292.4 mg/dL.

And the Hb (3 h)?
The Hb was 13.6 g/dL.

What about the Ht (3 h) of the same compound?
Its Ht is 38.8%.

What about the Lym (3 h) of the same compound?
Its Lym is 82.4%.

What about the MCH (3 h) of the same compound?
Its MCH is 22.3 pg.

And the MCHC (3 h)?
Its MCHC is 35.1%.

What about the MCV (3 h) of the same compound?
Its MCV is 63.5 fL.

What about the Mono (3 h) of the same compound?
Its Mono is 1.8%.

What about the Neu (3 h) of the same compound?
Its Neu is 14.6%.

What about the PT (3 h) of the same compound?
The PT was 15.8 s.

And the Plat (3 h)?
Its Plat is 122.5 x10_4/uL.

What about the RBC (3 h) of the same compound?
The RBC was 612 x10_4/ul.

And the Ret (3 h)?
Its Ret is 8.6%.

And the WBC (3 h)?
Its WBC is 96.4 x10_2/uL.

And the A/G (3 h)?
Its A/G is 1.3.

And the ALP (3 h)?
Its ALP is 1879.2 IU/L.

What about the ALT (3 h) of the same compound?
The ALT was 44.4 IU/L.

What about the AST (3 h) of the same compound?
Its AST is 75.8 IU/L.

What about the BUN (3 h) of the same compound?
The BUN was 14.4 mg/dL.

What about the CRE (3 h) of the same compound?
The CRE was 0.2 mg/dL.

And the Ca (3 h)?
The Ca was 10.6 mg/dL.

What about the Cl (3 h) of the same compound?
Its Cl is 106.8 meq/L.

What about the DBIL (3 h) of the same compound?
The DBIL was 0.002 mg/dL.

And the GLC (3 h)?
Its GLC is 190.6 mg/dL.

And the IP (3 h)?
The IP was 8.2 mg/dL.

What about the K (3 h) of the same compound?
The K was 4.1 meq/L.

And the LDH (3 h)?
The LDH was 186.8 IU/L.

What about the Na (3 h) of the same compound?
Its Na is 142 meq/L.

And the PL (3 h)?
Its PL is 143.6 mg/dL.

What about the RALB (3 h) of the same compound?
The RALB was 3 g/dL.

What about the TBIL (3 h) of the same compound?
The TBIL was 0.02 mg/dL.

And the TC (3 h)?
The TC was 84 mg/dL.

And the TG (3 h)?
The TG was 55.6 mg/dL.

What about the TP (3 h) of the same compound?
The TP was 5.4 g/dL.

What about the gamma-GTP (3 h) of the same compound?
Its gamma-GTP is 1 IU/L.

And the TERMINAL_BW (6 h)?
Its TERMINAL_BW is 210.9 g.

And the APTT (6 h)?
The APTT was 21.9 s.

What about the Bas (6 h) of the same compound?
The Bas was 0%.

What about the Eos (6 h) of the same compound?
Its Eos is 0.8%.

And the Fbg (6 h)?
Its Fbg is 287.6 mg/dL.

What about the Hb (6 h) of the same compound?
Its Hb is 13.5 g/dL.

What about the Ht (6 h) of the same compound?
Its Ht is 38.4%.

And the Lym (6 h)?
Its Lym is 82%.

What about the MCH (6 h) of the same compound?
Its MCH is 22.3 pg.

And the MCHC (6 h)?
The MCHC was 35.1%.

What about the MCV (6 h) of the same compound?
The MCV was 63.6 fL.

What about the Mono (6 h) of the same compound?
The Mono was 2.6%.

And the Neu (6 h)?
Its Neu is 13.8%.

What about the PT (6 h) of the same compound?
Its PT is 16 s.

And the Plat (6 h)?
The Plat was 117.7 x10_4/uL.

What about the RBC (6 h) of the same compound?
Its RBC is 605 x10_4/ul.

What about the Ret (6 h) of the same compound?
The Ret was 9.1%.

And the WBC (6 h)?
Its WBC is 103.6 x10_2/uL.

What about the A/G (6 h) of the same compound?
Its A/G is 1.2.

What about the ALP (6 h) of the same compound?
The ALP was 1447.2 IU/L.

What about the ALT (6 h) of the same compound?
The ALT was 47.2 IU/L.

What about the AST (6 h) of the same compound?
Its AST is 77.4 IU/L.

And the BUN (6 h)?
The BUN was 10.8 mg/dL.

And the CRE (6 h)?
Its CRE is 0.1 mg/dL.

What about the Ca (6 h) of the same compound?
The Ca was 10.6 mg/dL.

What about the Cl (6 h) of the same compound?
Its Cl is 106.4 meq/L.

And the DBIL (6 h)?
The DBIL was 0 mg/dL.

What about the GLC (6 h) of the same compound?
The GLC was 185 mg/dL.

What about the IP (6 h) of the same compound?
Its IP is 9.7 mg/dL.

What about the K (6 h) of the same compound?
Its K is 4.4 meq/L.

What about the LDH (6 h) of the same compound?
The LDH was 228 IU/L.

And the Na (6 h)?
The Na was 141.8 meq/L.

What about the PL (6 h) of the same compound?
Its PL is 141.6 mg/dL.

And the RALB (6 h)?
Its RALB is 3 g/dL.

And the TBIL (6 h)?
The TBIL was 0.022 mg/dL.

And the TC (6 h)?
Its TC is 79.4 mg/dL.

What about the TG (6 h) of the same compound?
Its TG is 54.2 mg/dL.

What about the TP (6 h) of the same compound?
The TP was 5.4 g/dL.

What about the gamma-GTP (6 h) of the same compound?
Its gamma-GTP is 1 IU/L.

And the TERMINAL_BW (9 h)?
The TERMINAL_BW was 203.8 g.

And the APTT (9 h)?
Its APTT is 21.7 s.

And the Bas (9 h)?
Its Bas is 0%.

And the Eos (9 h)?
Its Eos is 0.8%.

What about the Fbg (9 h) of the same compound?
Its Fbg is 302.2 mg/dL.

What about the Hb (9 h) of the same compound?
The Hb was 13.4 g/dL.

And the Ht (9 h)?
The Ht was 38.7%.

And the Lym (9 h)?
Its Lym is 81.6%.

And the MCH (9 h)?
The MCH was 22 pg.

What about the MCHC (9 h) of the same compound?
The MCHC was 34.7%.

What about the MCV (9 h) of the same compound?
Its MCV is 63.4 fL.

And the Mono (9 h)?
The Mono was 2.2%.

And the Neu (9 h)?
The Neu was 14.8%.

What about the PT (9 h) of the same compound?
Its PT is 16 s.

What about the Plat (9 h) of the same compound?
The Plat was 119.6 x10_4/uL.

What about the RBC (9 h) of the same compound?
Its RBC is 610 x10_4/ul.

What about the Ret (9 h) of the same compound?
Its Ret is 7.7%.

What about the WBC (9 h) of the same compound?
Its WBC is 102.4 x10_2/uL.

And the A/G (9 h)?
The A/G was 1.1.

And the ALP (9 h)?
Its ALP is 1453.2 IU/L.

And the ALT (9 h)?
The ALT was 40.2 IU/L.

What about the AST (9 h) of the same compound?
The AST was 68.8 IU/L.

What about the BUN (9 h) of the same compound?
The BUN was 11.4 mg/dL.

And the CRE (9 h)?
Its CRE is 0.1 mg/dL.

What about the Ca (9 h) of the same compound?
The Ca was 10.4 mg/dL.

What about the Cl (9 h) of the same compound?
The Cl was 106 meq/L.

What about the DBIL (9 h) of the same compound?
Its DBIL is 0.002 mg/dL.

And the GLC (9 h)?
Its GLC is 184.2 mg/dL.

What about the IP (9 h) of the same compound?
Its IP is 9.8 mg/dL.

And the K (9 h)?
Its K is 4.1 meq/L.

What about the LDH (9 h) of the same compound?
The LDH was 181.8 IU/L.

What about the Na (9 h) of the same compound?
The Na was 141.6 meq/L.

And the PL (9 h)?
The PL was 136.8 mg/dL.

What about the RALB (9 h) of the same compound?
The RALB was 2.9 g/dL.

What about the TBIL (9 h) of the same compound?
Its TBIL is 0.014 mg/dL.

And the TC (9 h)?
The TC was 73 mg/dL.

What about the TG (9 h) of the same compound?
Its TG is 75.6 mg/dL.

And the TP (9 h)?
Its TP is 5.5 g/dL.

And the gamma-GTP (9 h)?
Its gamma-GTP is 1.2 IU/L.

What about the TERMINAL_BW (24 h) of the same compound?
The TERMINAL_BW was 225.5 g.

And the APTT (24 h)?
The APTT was 21.4 s.

And the Bas (24 h)?
The Bas was 0%.

What about the Eos (24 h) of the same compound?
Its Eos is 1%.

And the Fbg (24 h)?
Its Fbg is 315 mg/dL.

And the Hb (24 h)?
The Hb was 13.7 g/dL.

And the Ht (24 h)?
Its Ht is 38.8%.

And the Lym (24 h)?
The Lym was 78%.

What about the MCH (24 h) of the same compound?
The MCH was 22.1 pg.

What about the MCHC (24 h) of the same compound?
Its MCHC is 35.3%.

And the MCV (24 h)?
The MCV was 62.5 fL.

And the Mono (24 h)?
The Mono was 2.8%.

And the Neu (24 h)?
Its Neu is 17.4%.

And the PT (24 h)?
The PT was 15.7 s.

What about the Plat (24 h) of the same compound?
Its Plat is 124.5 x10_4/uL.

And the RBC (24 h)?
The RBC was 621.4 x10_4/ul.

And the Ret (24 h)?
Its Ret is 8.2%.

What about the WBC (24 h) of the same compound?
The WBC was 97.4 x10_2/uL.

And the A/G (24 h)?
Its A/G is 1.1.

What about the ALP (24 h) of the same compound?
The ALP was 1887.6 IU/L.

And the ALT (24 h)?
The ALT was 42.8 IU/L.

And the AST (24 h)?
Its AST is 69 IU/L.

And the BUN (24 h)?
Its BUN is 15.8 mg/dL.

And the CRE (24 h)?
Its CRE is 0.1 mg/dL.

And the Ca (24 h)?
The Ca was 11 mg/dL.

What about the Cl (24 h) of the same compound?
The Cl was 104.6 meq/L.

And the DBIL (24 h)?
The DBIL was 0 mg/dL.

What about the GLC (24 h) of the same compound?
Its GLC is 180.6 mg/dL.

And the IP (24 h)?
Its IP is 7.6 mg/dL.

What about the K (24 h) of the same compound?
Its K is 4.2 meq/L.

What about the LDH (24 h) of the same compound?
Its LDH is 183.2 IU/L.

And the Na (24 h)?
Its Na is 142.4 meq/L.

And the PL (24 h)?
Its PL is 156.6 mg/dL.

And the RALB (24 h)?
The RALB was 2.9 g/dL.

What about the TBIL (24 h) of the same compound?
Its TBIL is 0.004 mg/dL.

What about the TC (24 h) of the same compound?
Its TC is 77.8 mg/dL.

And the TG (24 h)?
The TG was 120.4 mg/dL.

What about the TP (24 h) of the same compound?
The TP was 5.6 g/dL.

And the gamma-GTP (24 h)?
The gamma-GTP was 1 IU/L.
